Measurements as given in US20070098649A1, “Method and composition for controlling oral pathogens” (priority 2004, published 2007).
Counter-ions that a name gives are not always drawn. Like-named read-outs stand apart in the source and are kept apart here. Marks after values point to notes of the source that are not given here. Values belong to the compound of their own block, whether it stands above or below them.

Columns and labels:
Fusobacterium nucleatum [1] = experiment: MIC microdilution assay; format: cell-based; settings: F. nucleatum
Streptococcus gordonii [2] = experiment: MIC microdilution assay; format: cell-based; settings: S. gordonii
[3] = tested on: Actinobacillus actinomycetemcomitans; experiment: MIC microdilution assay; format: cell-based; settings: for MIC: Aggregatibacter actinomycetemcomitans
Streptococcus mutans [4] = experiment: MIC microdilution assay; format: cell-based; settings: S. mutans; for MIC: Streptococcus mutans
Porphymonas gingivalis [5] = experiment: MIC microdilution assay; format: cell-based; settings: P. gingivalis; for MIC: Porphyromonas gingivalis
Staphylococcus aureus [6] = experiment: MIC microdilution assay; format: cell-based; settings: S. aureus, agent alone, read-out: MIC of the antimicrobial agents alone
oral pathogens = experiment: Combination determination, statements on the oral pathogens; format: cell-based; settings: berberine hydrochloride / berberine (B-CG and B-S)
Experimental: (§1) The alkaloids were tested in pair-wise combinations (fractional inhibitory concentrations, FIC) against all the bacteria to determine whether interactions were antagonistic (FIC>1), additive (0.5<FIC<1), or synergistic (FIC<0.5). The FIC was calculated by the following: (MIC Acombination/MIC Aalone)+(MIC Bcombination/MIC Balone). Where A represents compound 1 and B represents compound 2. […] In the case of A. actinomycetemcomitans and P. aeruginosa, CHX was used at 0.78 to 50 μg ml^−1. Berberine (B-CG and B-S) was used at concentrations 0.9 to 250 μg ml^−1. The antibacterial efficacy of berberine (1.95 to 500 μg ml^−1) was tested in combination against P. aeruginosa with CHX (0.78 to 50 μg ml^−1) (Sigma Chemicals) and the polymyxin antibiotic Col (0.04 to 25 μg ml^−1) (Sigma Chemicals). The plates were incubated for 24 hours.

Streptococcus mutans [7] = experiment: Combination determination (FIC, MIC in combination); format: cell-based; settings: S. mutans; berberine (B-CG) combined with CHX, Tet or Dox; MIC of the named agent in the combination
Experimental: as §1
CHX was diluted from left to right at 10 to 0.08 μg ml^−1 ([…] 1 to 8), berberine was diluted from top to bottom at 250 to 0.09 μg ml^−1 ([…] 1 to 8). Column 9 was the cell control, column 10 was berberine alone (250 to 0.09 μg ml^−1); and column 11 was CHX alone (10 to 0.08 μg ml^−1). Row H was the solvent control (8% DMSO, H1 to H8). Column 12 was the media blank. The dilution assay was designed such that A1 contained the highest concentration of both agents (berberine 250 μg ml^−1 and CHX 10 μg ml^−1). The final concentration of berberine in wells A2 to A8 was […]. The FIC value was calculated from well C6. FIC was calculated by: (MIC Acombination/MIC Aalone)+(MIC Bcombination/MIC Balone).

Escherichia coli [8] = experiment: MIC microdilution assay; format: cell-based; settings: E. coli, agent alone, read-out: MIC of the antimicrobial agents alone
Escherichia coli [9] = experiment: Combination determination (FIC, MIC in combination); format: cell-based; settings: E. coli
Experimental: as §1

[10] = tested on: Actinobacillus actinomycetemcomitans; experiment: as above; format: cell-based; settings: A. actinomycetemcomitans grown under anaerobic conditions; berberine (B-CG) combined with CHX, Tet or Dox; MIC of the named agent in the combination
Experimental: as §1

Porphymonas gingivalis [11] = experiment: as above; format: cell-based; settings: P. gingivalis; berberine (B-CG) combined with CHX, Tet or Dox; MIC of the named agent in the combination
Experimental: as §1

Streptococcus gordonii [12] = experiment: as above; format: cell-based; settings: S. gordonii; berberine (B-CG) combined with CHX, Tet or Dox; MIC of the named agent in the combination
Experimental: as §1

Fusobacterium nucleatum [13] = experiment: as above; format: cell-based; settings: F. nucleatum; berberine (B-CG) combined with CHX, Tet or Dox; MIC of the named agent in the combination
Experimental: as §1

Staphylococcus aureus [14] = experiment: as above; format: cell-based; settings: S. aureus
Experimental: as §1

[15] = tested on: S. aureus, E. coli, P. aeruginosa, and S. sanguis; settings: isolated from H. canadensis; cited from earlier work
Pseudomonas aeruginosa [16] = experiment: MIC microdilution assay; format: cell-based; settings: P. aeruginosa; agent alone
Pseudomonas aeruginosa [17] = experiment: Combination determination (FIC, MIC in combination); format: cell-based; settings: P. aeruginosa
Experimental: as §1

[18] = agent alone, read-out: MIC of the antimicrobial agents alone
[19] = berberine (B-CG) combined with CHX, Tet or Dox, MIC of the named agent in the combination
[20] = berberine hydrochloride / chloride

Compound: COc1cc2c(cc1O)[C@@H]1Cc3ccc(OC)c(OC)c3CN1CC2 [Isocorypalamine, isocorypalmine]
MIC of Goldenseal Alkaloids Against Selected Oral Pathogens (Fusobacterium nucleatum [1]; Fn): >125 µg/mL
MIC of Goldenseal Alkaloids Against Selected Oral Pathogens (Streptococcus gordonii [2]; Sg): >125 µg/mL
MIC of Goldenseal Alkaloids Against Selected Oral Pathogens ([3]; Aa, A. actinomycetemcomitans): >125 µg/mL
MIC of Goldenseal Alkaloids Against Selected Oral Pathogens (Streptococcus mutans [4]; Sm): >125 µg/mL
MIC of Goldenseal Alkaloids Against Selected Oral Pathogens (Porphymonas gingivalis [5]; Pg): >125 µg/mL

Compound: CN(C)[C@@H]1C(O)=C(C(N)=O)C(=O)[C@@]2(O)C(O)=C3C(=O)c4c(O)cccc4[C@@](C)(O)[C@H]3C[C@@H]12 [Tet, tetracycline HCl]
MIC (Fusobacterium nucleatum [1]; Fusobacterium nucleatum, agent alone, read-out: MIC of the antimicrobial agents alone): 0.16 µg/mL
MIC (Staphylococcus aureus [6]): 1.53 µg/mL
Growth inhibition effect when combined with berberine (oral pathogens): synergistic
MIC (Streptococcus gordonii [2]; Streptococcus gordonii, agent alone, read-out: MIC of the antimicrobial agents alone): 0.31 µg/mL
MIC of the antimicrobial agents in combination (Streptococcus mutans [7]): 0.20 µg/mL
MIC ([3]; A. actinomycetemcomitans grown under anaerobic conditions, agent alone, read-out: MIC of the antimicrobial agents alone): 25 µg/mL
MIC (Streptococcus mutans [4]; [18]): 1.56 µg/mL
MIC (Escherichia coli [8]): 3.06 µg/mL
MIC (Porphymonas gingivalis [5]; [18]): 0.08 µg/mL
MIC of the antimicrobial agents in combination (Escherichia coli [9]; [19]): 1.53 µg/mL
Growth inhibition effect when combined with berberine (Escherichia coli [9]; [20]): synergistic
MIC of the antimicrobial agents in combination [10]: 12.5** μg ml^−1
MIC of the antimicrobial agents in combination (Porphymonas gingivalis [11]): 0.01 µg/mL
MIC of the antimicrobial agents in combination (Streptococcus gordonii [12]): 0.08 µg/mL
MIC of the antimicrobial agents in combination (Fusobacterium nucleatum [13]): 0.02 µg/mL
MIC of the antimicrobial agents in combination (Staphylococcus aureus [14]; [19]): 0.39 µg/mL
Growth inhibition effect when combined with berberine (Staphylococcus aureus [14]; [20]): synergistic

Concentration without antimicrobial activity (MIC bound) ([3]; A. actinomycetecomitans): ≥ 300 μml^−1
MIC ([3]; A. actinomycetemcomitans, read-out: Concentration without growth inhibition (MIC bound)): > 300 µg/mL
Concentration without growth inhibition (MIC bound) (Streptococcus mutans [4]; growth hindered, but not inhibited at lower concentrations): greater than 300 μml^−1
MIC (Streptococcus mutans [4]; growth limited but not inhibited at lower concentrations, text b118, read-out: Concentration without growth inhibition (MIC bound)): > 300 µg/mL
MIC (Porphymonas gingivalis [5]; comparable to berberine, read-out: MIC): 17 µg/mL
Compound: COc1ccc2cc3[n+](cc2c1O)CCc1cc2c(cc1-3)OCO2 [berberrubine]

Compound: COc1ccc2c(c1OC)C(=O)O[C@@H]2[C@H]1c2cc3c(cc2CCN1C)OCO3 [β-hydrastine]
Antibacterial activity [15]: inactive against all the tested organisms

Compound: colistin sulfate
MIC of the antimicrobial agents alone (Pseudomonas aeruginosa [16]): 3.13 µg/mL
Interaction when combined with berberine (Pseudomonas aeruginosa [17]): no clear additive or synergistic effect
MIC of the antimicrobial agents in combination (Pseudomonas aeruginosa [17]; berberine combined with CHX or Col, MIC of the named agent in the combination): 1.56 µg/mL
